Experimental data from US20220194939A1, “Novel compounds and methods of use treating fructose-related disorders or diseases” (Colorado Research Partners, LLC, priority 2019, published 2022).
Structures can show the parent of a compound that is named as a salt.

Target: T1, KHK (Homo sapiens, UniProt P50053)
T1 construct: (His)6 tag (N); thrombin cleavage site (N); made in house; host or cells: E. coli BL-21 (DE3)
T1 sequence (P50053 1-298): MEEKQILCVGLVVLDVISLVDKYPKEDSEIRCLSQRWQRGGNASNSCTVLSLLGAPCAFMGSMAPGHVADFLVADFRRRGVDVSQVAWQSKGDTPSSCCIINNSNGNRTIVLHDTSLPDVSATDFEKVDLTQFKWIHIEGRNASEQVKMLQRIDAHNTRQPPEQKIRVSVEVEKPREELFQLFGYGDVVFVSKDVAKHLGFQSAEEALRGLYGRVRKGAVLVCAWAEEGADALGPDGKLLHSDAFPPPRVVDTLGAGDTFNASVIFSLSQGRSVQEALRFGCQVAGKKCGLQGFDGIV
Assay: coupled enzyme assay for KHK activity
Type: biochemical
Conditions: purified human recombinant KHK, PK/LDH coupled assay, A340 at 25° C., 0.1 mM ATP, 0.2 mM fructose; isoform (KHK-C or KHK-A) not given
Source text: Specific coupled enzyme screening assays were developed for KHK-C and KHK-A using recombinant proteins. Purified human recombinant KHK-C and KHK-A were produced using by expression in E. coli BL-21 (DE3) using IPTG induction as a His-tagged fusion proteins and purified using Ni-NTA chromatography on His-Trap FF columns. For KHK-C, the coding region from NCBI refseq number NM_006488 was inserted at the Nde I site of pET28a(+) vector, which puts it downstream from an amino-terminal (His)6 tag and a thrombin cleavage site. The same was done for KHK-A using the coding regions from NCBI refseq number NM_000221.2. The protein was expressed in BL-21 (DE3) using IPTG induction and purified using Ni-NTA (GE His Trap FF) column. The protein was washed with 100 column volumes, eluted with 3 column volumes, and dialyzed with HEPES, pH 7.4 buffers containing 20, 500, and 0 mM imidazole, respectively. The dialysate was concentrated by ultrafiltration (10kD MWCO) to >15 mg/mL protein. The protein prep was >95% pure on SDS-PAGE and the molecular weight was confirmed by relative mobility to be 33,730 Da (34,826 expected).
The assay uses the product of the KHK reaction, ADP, to drive a signal measured in real time for measuring the reaction rate. This consists of a 3-step, coupled-enzyme process by which pyruvate kinase (PK), which converts the ADP from the KHK reaction along with phosphoenolpyruvate (PEP) to ATP and pyruvate, respectively. The pyruvate is converted along with NADH to lactate and NAD+ by lactate dehydrogenase (LDH). The disappearance of NADH is measured kinetically by monitoring A340 at 25° C. for 15 minutes. The enzymatic assay was carried out in a total reaction volume of 200 μL containing 33 mM triethanolamine-HCl, pH 7.4, 6 mM MgCl2, 100 mM KCl, 0.1 mM ATP, 1.33 mM PEP, 0.3 mM NADH, 0.2-1.0 U of PK, 0.2-1.0 U of LDH, and 150-240 nM KHK-C or KHK-A (0.01-0.02 U). Fructose was added to initiate the reactions to 0.2 mM, except for the no fructose controls which utilized water. This high-throughput assay was used to identify inhibitors that have an IC50 value<1 μM for KHK-C and to confirm that those values for KHK-A were not more than 2-fold lower.

| Compound | IC50 [nM] |
| --- | --- |
| Cc1cccc(-n2ncc3ccc(NC(=O)[C@H](CO)NC(=O)OC(C)C)cc32)c1 [Compound 37, (S)-isopropyl (3-hydroxy-1-oxo-1-((1-(m-tolyl)-1H-indazol-6-yl)amino)propan-2-yl)carbamate] | 4000 |
| Cc1cccc(-n2ncc3ccc(NC(=O)C(N)C(=O)O)cc32)c1 (centres unmarked) [Compound 39, 2-amino-3-oxo-3-((1-(m-tolyl)-1H-indazol-6-yl)amino)propanoic acid hydrochloride] | 700 |
| CC(=O)OC[C@H](N)C(=O)Nc1ccc2cnn(-c3cccc(C)c3)c2c1 [Compound 41, (S)-2-amino-3-oxo-3-((1-(m-tolyl)-1H-indazol-6-yl)amino)propyl acetate hydrochloride] | 2700 |
| CCc1nn(-c2cccc(C)c2)c2cc(NC(=O)[C@@H](N)CO)c(C)cc12 [Compound 46, (S)-2-amino-N-(3-ethyl-5-methyl-1-(m-tolyl)-1H-indazol-6-yl)-3-hydroxypropanamide hydrochloride] | 1900 |
| Cc1cccc(-n2nc(C(F)F)c3ccc(NC(=O)[C@@H](N)CO)cc32)c1 [Compound 48, (S)-2-amino-N-(3-(difluoromethyl)-1-(m-tolyl)-1H-indazol-6-yl)-3-hydroxypropanamide hydrochloride] | 460 |

Second part, the molecule after the results:

| IC50 [nM] | Compound |
| --- | --- |
| 1400 | Cc1cccc(-n2ncc3ccc(NC(=O)C(N)C(N)=O)cc32)c1 (centres unmarked) [Compound 38, 2-amino-N1-(1-(m-tolyl)-1H-indazol-6-yl)malonamide hydrochloride] |
| 140 | Cc1cccc(-n2nnc3ccc(NC(=O)[C@@H](N)CO)cc32)c1 [Compound 40, (S)-2-amino-3-hydroxy-N-(1-(m-tolyl)-1H-benzo[d][1,2,3]triazol-6-yl)propanamide hydrochloride] |
| 1800 | Cc1cccc(-n2ncc3cc(C)c(NC(=O)[C@@H](N)CO)cc32)c1 [Compound 42, (S)-2-amino-3-hydroxy-N-(5-methyl-1-(m-tolyl)-1H-indazol-6-yl)propanamide hydrochloride] |
| 1860 | CCc1nn(-c2cccc(C)c2)c2cc(NC(=O)[C@@H](N)CO)ccc12 [Compound 43, (S)-2-amino-N-(3-ethyl-1-(m-tolyl)-1H-indazol-6-yl)-3-hydroxypropanamide hydrochloride] |
| 15000 | Cc1cccc(-n2ncc3cnc(NC(=O)[C@@H](N)CO)cc32)c1 [Compound 44, (S)-2-amino-3-hydroxy-N-(1-(m-tolyl)-1H-pyrazolo[4,3-c]pyridin-6-yl)propanamide hydrochloride] |
| 250 | Cc1cccc(-n2ncc3ncc(NC(=O)[C@@H](N)CO)cc32)c1 [Compound 45, (S)-2-amino-3-hydroxy-N-(1-(m-tolyl)-1H-pyrazolo[4,3-b]pyridin-6-yl)propanamide hydrochloride] |
